“And” between values parts separate entries of the source, which are not always exact repeats. Equal values may be shown once. “Also recorded” adds a separate entry of the source.
Legend:
patients with mUC = conditions: in vivo; cited from earlier work
[1] = test system: patients with unresectable locally advanced or metastatic TNBC who received at least 2 prior treatments; experiment: Phase 2 single-arm open-label study of trilaciclib administered prior to sacituzumab govitecan-hziy (NCT05113966); assay type: in vivo, human; conditions: for Grade ≥3 TRAEs related to the named study drug / patients with AEs related to the named study drug: combination study, attribution by investigators
Procedure: Early results from initial human clinical trials (see, e.g., NCT05113966) have shown trilaciclib's ability to drastically reduce side effects associated with sacituzumab govitecan administration, including a reduction in the incidence of severe (Grade 3/4) neutropenia (see, for example, Example 1, FIG. 2A). In the initial studies, 8 female patients (median age 55.0 years) had been enrolled and completed a median 3 (range 1-6) 21-day cycles, wherein sacituzumab govitecan was administered on days 1 and 8 of each 21-day cycle, and trilaciclib was administered over a 30 minute intravenous administration within 4 hours prior to administration of sacituzumab govitecan on days 1 and 8 of each 21-day cycle (see, e.g., FIG. 1). All patients had received a prior taxane and 7 had received a prior immune checkpoint inhibitor (5 atezolizumab, 2 pembrolizumab; 4 in the adjuvant setting, 3 in the metastatic setting). Severe (Grade 3/4) neutropenia occurred in only 1 patient (12.5% with trilaciclib compared with 52% in the ASCENT study). No patients had Grade 3/4 anemia or thrombocytopenia, and none had febrile neutropenia or a serious infection. Granulocyte colony-stimulating factors were administered to 2 patients (25%) and 1 patient required intravenous antibiotics. No patients required red blood cell/platelet transfusions or erythropoiesis-stimulating agents. […] There was only 1 treatment-related adverse event of diarrhea.
FIG. 1 is a schematic of a human clinical trial assessing the safety and efficacy of trilaciclib administered with sacituzumab govitecan-hziy (Trodelvy®) in patients with locally advanced or metastatic TNBC who received at least 2 prior treatments, at least 1 in the metastatic setting. The study will include 3 study phases: Screening Phase, treatment Phase, and Survival Follow-up Phase. The treatment phase consists of 21-day cycles: Trilaciclib will be administered IV prior to sacituzumab govitecan-hziy infusions. Trilaciclib will be administered via IV prior to sacituzumab govitecan-hziy administration at 240 mg/m^2. Sacituzumab govitecan-hziy will be administered via IV at 10 mg/kg. The study will include 3 study phases: Screening Phase, Treatment Phase, and Survival Follow up Phase. The Treatment Phase begins on the day of the first dose of study treatment and completes at the Safety Follow-up Visit. The first Survival Follow-up assessment should occur approximately 3 months after the End of Treatment Visit. DC=discontinuation, PD=Progressive disease, PI=Principal Investigator, WD=Withdraw.
An exploratory Phase 2, multicenter, open-label study evaluating the safety and efficacy of trilaciclib administered with sacituzumab govitecan-hziy in patients with unresectable locally advanced or metastatic TNBC who received at least 2 prior treatments, at least 1 in the metastatic setting, is provided herein.
Trilaciclib plus sacituzumab govitecan-hziy will be administered intravenously (IV) in 21-day cycles as follows: • Trilaciclib 240 mg/m^2 administered as a 30-minute IV infusion completed within 4 hours prior to the start of sacituzumab govitecan-hziy on Day 1 and Day 8 of each 21-day treatment cycle. • Sacituzumab govitecan-hziy 10 mg/kg administered IV on Day 1 and Day 8 of each 21-day treatment cycle.
The first infusion of sacituzumab govitecan-hziy is administered over 3 hours and the patient is observed during the infusion and for at least 30 minutes following the initial dose for signs or symptoms of infusion-related reactions. Subsequent infusions of sacituzumab govitecan-hziy may be administered over 1 to 2 hours if prior infusions were tolerated and patients should be observed during the infusion and for at least 30 minutes after infusion. […]

[2] = test system: patients with metastatic urothelial carcinoma (mUC) progressing after platinum-based chemotherapy and ICIs; conditions: following progression; cited from earlier work
[3] = test system: patients with PD-L1 positive locally advanced unresectable/metastatic TNBC; conditions: cited from earlier work
[4] = test system: patients with unresectable locally advanced/metastatic triple-negative breast cancer, PD-L1 positive; conditions: paclitaxel with vs without atezolizumab, cited from earlier work
[5] = test system: patients with locally recurrent unresectable or metastatic TNBC whose tumors express PD-L1 (CPS ≥10); conditions: cited from earlier work
[6] = test system: patients treated with sacituzumab govitecan-hziy; conditions: cited from earlier work
[7] = test system: patients with metastatic TNBC; conditions: N=108; cited from earlier work
[8] = test system: patients with locally advanced or mUC after platinum-containing chemotherapy and PD-1 or PD-L1 inhibitor; conditions: cited from earlier work
[9] = test system: patients with unresectable locally advanced or metastatic triple-negative breast cancer (mTNBC); conditions: cited from earlier work
[10] = trilaciclib prior to sacituzumab govitecan, 8 patients
[11] = trilaciclib prior to sacituzumab govitecan, RECIST v1.1, 8 patients
[12] = mTNBC relapsed after at least two prior chemotherapies
[13] = vs physician's choice of single-agent chemotherapy

In the case of `COc1cc(OC)cc(N(CCNC(C)C)c2ccc3ncc(-c4cnn(C)c4)nc3c2)c1` [erdafitinib], the “objective response rates (ORRs)” value (patients with mUC) is given as “approximately 40%”.
For `CN1CCN(c2ccc(Nc3ncc4cc5n(c4n3)C3(CCCCC3)CNC5=O)nc2)CC1` [trilaciclib, 2′-((5-(4-methylpiperazin-1-yl)pyridin-2-yl)amino)-7′,8′-dihydro-6′H-spiro(cyclohexane-1,9′-pyrazino(1′,2′:1,5)pyrrolo(2,3-d)pyrimidin)-6′-one], the “Grade ≥3 TRAEs related to the named study drug” value ([1]; 8 patients) was “Grade 4 neutrophil count decreased”, the “patients with AEs related to the named study drug” value ([1]; 8 patients) was 2 patients and the “effect of inclusion of trilaciclib on side effects associated with sacituzumab govitecan” value ([1]; initial studies, compared with ASCENT study) was “drastically reduces the side effects”. For the same compound, the “Severe (Grade 3/4) neutropenia, number of patients” value ([1]; trilaciclib 240 mg/m^2 IV within 4 hours prior to sacituzumab govitecan-hziy 10 mg/kg, days 1 and 8 of 21-day cycles, 8 patients) was 1 patient, the tolerability ([1]; trilaciclib administered prior to sacituzumab govitecan, preliminary data) was “well tolerated” and the “Severe (Grade 3/4) neutropenia, percentage of patients” value ([1]; trilaciclib prior to sacituzumab govitecan, days 1 and 8 of 21-day cycles, 8 patients) was 12.5%. For the same compound, the “Grade 3/4 anemia, patients” value [1, 10] was “No patients”, the “Grade 3/4 thrombocytopenia, patients” value [1, 10] was “No patients” and the “Granulocyte colony-stimulating factors administered, number of patients” value [1, 10] was 2 patients. The “Granulocyte colony-stimulating factors administered, percentage of patients” value [1, 10] was 25%, the “febrile neutropenia, patients” value [1, 10] was “none” and the “patients with Grade ≥3 TRAEs” value [1, 10] was “Two”. For the same compound, the “patients with ≥1 treatment-related adverse event (TRAE)” value [1, 10] was 5 patients, the “required erythropoiesis-stimulating agents, patients” value [1, 10] was “No patients” and the “required intravenous antibiotics, number of patients” value [1, 10] was 1 patient. The “required red blood cell/platelet transfusions, patients” value [1, 10] was “No patients”, the “serious adverse events reported to date” value [1, 10] was “no serious AEs; also recorded: no serious adverse events” and the “serious infection, patients” value [1, 10] was “none”. For the same compound, the “withdrawn due to an adverse event, patients” value [1, 10] was “No patients”, the “treatment-related adverse event (TRAE) of diarrhea, number” value ([1]; trilaciclib prior to sacituzumab govitecan, 8 patients, trilaciclib- and sacituzumab govitecan-related) was 1 and the “partial response, number of patients” value [1, 11] was “one”. For the same compound, the “stable disease, number of patients” value [1, 11] was “three”.
In the case of `CC[C@]12C=CCN3CC[C@@]4(c5cc([C@@]6(C(=O)OC)C[C@@H]7C[C@@H](C(C)(F)F)CN(Cc8c6[nH]c6ccccc86)C7)c(OC)cc5N(C)[C@H]4[C@@](O)(C(=O)OC)[C@@H]1OC(C)=O)[C@@H]32` [vinflunine], the “median overall survival (OS)” value [2] is listed as 7-8 months and the response rates [2] is listed as “approximately 10%”.
In the case of “atezolizumab: a programmed death-ligand 1 (PD-L1) blocking antibody (immune checkpoint inhibitor)”, the “survival (lived for an average of)” value ([3]; PD-L1 positive subset, atezolizumab or placebo plus nab-paclitaxel) is listed as 25 months, the “median progression-free survival (PFS)” value ([3]; PD-L1 positive tumors, atezolizumab plus nab-paclitaxel vs placebo plus nab-paclitaxel) is listed as 7.4 months and the “PFS hazard ratio [HR]” value ([3]; PD-L1 positive, atezolizumab plus nab-paclitaxel vs placebo plus nab-paclitaxel) is listed as 0.60. For the same compound, the “PFS HR” value ([4]; frontline) was 0.82 and the “survival HR” value [4] was 1.11.
For “pembrolizumab: PD-1 inhibitor given in combination with chemotherapy for PD-L1 expressing TNBC”, the “median PFS” value ([5]; pembrolizumab plus chemotherapy arm) is listed as 9.7 months and the “PFS HR” value ([5]; pembrolizumab plus chemotherapy vs placebo arm) is listed as 0.65.
In the case of sacituzumab govitecan, the “Diarrhea, patients” value ([6]; all grades, all patients treated) is given as 65%, the “neutropenia, patients” value ([6]; all grades) is given as 61% and the “Grade 3-4 diarrhea, patients” value ([6]; all patients treated) is given as 12%. The “Grade 3-4 neutropenia, patients” value ([6]; in vivo) was 47%, the “Neutropenic colitis, patients” value ([6]; in vivo) was 0.5% and the “febrile neutropenia, patients” value ([6]; in vivo) was 7%. For the same compound, the “intestinal perforation following diarrhea, number of patients” value ([6]; in vivo) was “One”, the ORR [7] was 33.3% and the “median duration of response (DOR)” value [7] was 7.7 months. The “patients having a DOR of ≥6 months” value [7] was 55.5%, the “patients having a DOR of ≥12 months” value [7] was 16.7% and the “Grade ≥3 TRAEs related to the named study drug” value ([1]; 8 patients) was “Grade 3 alopecia and Grade 3 neutropenia; also recorded: Grade 4 neutrophil count decreased”. For the same compound, the “patients with AEs related to the named study drug” value ([1]; 8 patients) was 5 patients, the “objective (overall) response rate (ORR)” value ([8]; 10 mg/kg intravenously, days 1 and 8 of a 21-day cycle, 112 patients, RECIST 1.1) was 27.7% and the “median duration of response (DOR)” value ([8]; 10 mg/kg intravenously, days 1 and 8 of a 21-day cycle) was 7.2 months and 7.1 months. For the same compound, the complete responses ([8]; 112 patients) was 5.4%, the partial responses ([8]; 112 patients) was 22.3% and the “Severe (Grade 3/4) neutropenia, patients” value ([9]; ASCENT study, without trilaciclib) was 52%. The “G-CSF used as a rescue therapy, patients” value ([9]; ASCENT study) was 44%, the “adverse reaction leading to a dose reduction, patients” value ([9]; ASCENT study) was 22% and the “adverse reaction leading to treatment interruption, patients” value ([9]; ASCENT study) was 45%. The “permanently discontinued for adverse reactions, patients” value ([9]; mTNBC patients, ASCENT study) was 5%, the “median overall survival (OS)” value [9, 12] was 11.8 months and the “median progression free survival (PFS)” value [9, 12] was 4.8 months. For the same compound, the “OS hazard ratio (HR)” value [9, 13] was 0.51 and the “PFS hazard ratio [HR]” value [9, 13] was 0.43.

Source: US20240139196A1, “COMBINATION TREATMENTS IN DIFFICULT TO TREAT PATIENTS WITH ADVANCED AND/OR METASTATIC TROP-2 OVEREXPRESSING CANCERS” (G1 Therapeutics, Inc., priority 2021, published 2024)
